Patent publication US11259516B2, “Method and apparatus for capsular delivery to plants” (priority 2017, dated 2022)

Experiments:
Populus spp (Poplars) = system: Populus spp (Poplars); set-up: key: X indicates that the given herbicide is suitable for controlling the given weed; settings: cited from earlier work
[1] = system: Cascabela thevetia (Yellow oleander); set-up: key: X indicates that the given herbicide is suitable for controlling the given weed; settings: cited from earlier work
Acer negudo (Box elder) = system: Acer negudo (Box elder); set-up: key: X indicates that the given herbicide is suitable for controlling the given weed; settings: cited from earlier work
[2] = system: Eucalyptus dunnii (Dunn's White Gum); experiment: Case 3: dose rate effect of Di-Bak G on Eucalyptus dunnii, field trial; type: in vivo; settings: for mortality: single capsule per tree
Procedure: (§1) Generally, one capsule was inserted per 10 cm stem circumference.
(§2) Tree health was assessed on a 0-4 scale, 0 being dead and 4 being healthy. Observations were made for evidence of ‘flashback’ in nearby untreated trees.
In this trial, one, two or three capsules of glyphosate were inserted into Eucalyptus dunnii trees irrespective of their circumference. The trial was established on Brooklyn station, Upper Tooloom, near Urbenville on 26 May 2017. GPS co-ordinates were S28° 32.488′ E152° 24.778′. The trees were arranged in a similar manner, and similar in age and size, to the E. saligna trees described in Case 2. Desirable trees were marked and the other trees were treated.
This trial consisted of one replicate of 15 trees for each treatment. […] Tree health was assessed at 4 months (25 Aug. 2017) and 7 months (20 Dec. 2017). […] At the 4 month assessment, samples were collected for observation of dissolution of capsule and herbicide. Rainfall data for the closest recording station (Urbenville) was taken from the Bureau of Meteorology (BOM) internet site. No recent temperature data records were available for this site.

[3] = system: Crataegus sinaica (Azarola); set-up: key: X indicates that the given herbicide is suitable for controlling the given weed; settings: cited from earlier work
[4] = system: Cestrum parqui (Green cestrum); set-up: key: X indicates that the given herbicide is suitable for controlling the given weed; settings: cited from earlier work
[5] = system: Schefflera actinophyla (Umbrella tree); set-up: key: X indicates that the given herbicide is suitable for controlling the given weed; settings: cited from earlier work
[6] = system: Cinnamonum camphora (Camphor laurel); set-up: key: X indicates that the given herbicide is suitable for controlling the given weed; settings: cited from earlier work
[7] = system: Triadica sebifera (Chinese tallow tree); set-up: key: X indicates that the given herbicide is suitable for controlling the given weed; settings: cited from earlier work
[8] = system: Toxicodendron succedaneum (Rhus); set-up: key: X indicates that the given herbicide is suitable for controlling the given weed; settings: cited from earlier work
[9] = system: Eucalyptus saligna (Sydney Blue Gum); experiment: Case 2: thinning of plantation grown Eucalyptus saligna with Di-Bak G, field trial; type: in vivo; settings: at four months, on average a capsule every 13-14 cm of stem circumference
Procedure: as §1, §2
A trial was established on Brooklyn Station, Upper Tooloom, near Urbenville on 25 May 2017. GPS co-ordinates of the first treated plot were S28° 32.486′ E152° 24.782′. […] Trees were 6-10 m tall. Desirable trees were marked and the other trees were treated.
The trial consisted of four replicates with 15 trees per replicate. The number of capsules applied to each tree was dependent on tree circumference which was measured at chest height. The tree circumferences range was from 18 to 57 cm. Tree health was assessed at 4 months (25 Aug. 2017) and 7 months (20 Dec. 2017). Samples were collected for observation of dissolution of capsule and herbicide. Rainfall data for the closest recording station (Urbenville) was taken from the Bureau of Meteorology (BOM) internet site. No recent temperature data records were available for this site.

Lantana camara (Lantana) = system: Lantana camara (Lantana); set-up: key: X indicates that the given herbicide is suitable for controlling the given weed; settings: cited from earlier work
[10] = system: Solanum mauritianum (Wild tobacco tree); set-up: key: X indicates that the given herbicide is suitable for controlling the given weed; settings: cited from earlier work

For O=C(O)CNCP(=O)(O)O [Glyphosate], the “suitability of herbicide for control of weed” value (shortened to “suitability of herbicide”) (Populus spp (Poplars)) is given as “X”, the “suitability of herbicide” value [1] is given as “X” and the “suitability of herbicide” value (Acer negudo (Box elder)) is given as “X”. The trees dead ([2]; 2 capsules per tree, at 4 months) was ~90%, the treated trees killed ([2]; 2 capsules per tree, by 7 months) was “all had been killed” and the treated trees killed ([2]; 3 capsules per tree, by 4 months) was “killed all treated trees”. The mortality ([2]; at 4 months) was ~70%, the mortality ([2]; by 7 months) was ~80% and the “suitability of herbicide” value [3] was “X”. The “suitability of herbicide” value [4] was “X”, the “suitability of herbicide” value [5] was “X” and the “suitability of herbicide” value [6] was “X”. The “suitability of herbicide” value [7] was “X”, the “suitability of herbicide” value [8] was “X” and the mortality [9] was “over 90%”. For the same molecule, the “suitability of herbicide” value (Lantana camara (Lantana)) was “X” and the “suitability of herbicide” value [10] was “X”.
